According to patent publication US20230100941A1, “MOLECULES TARGETING MUTANT RAS PROTEIN” (AELIN THERAPEUTICS, priority 2020, published 2023):
Ends that are not written are not given here.

Columns and labels:
G12V mutant KRAS = target: T1, G12V mutant KRAS (Homo sapiens, UniProt P01116, G12V); assay: In vitro translation assay with streptavidin pull-down of biotinylated pept-ins, Western blot for KRAS; type: binding; details: 10 μM biotinylated pept-in
T1 construct: made in house; host or cells: cell-free: PURExpress In Vitro Protein Synthesis Kit (New England Biolabs), linear T7 PCR template
Description: (§1) In vitro translation assays were performed using the PURExpress® In Vitro Protein Synthesis Kit (New England Biolabs) according to the manufacturer's instructions. Briefly, linear DNA fragments containing T7 promotor and terminator sequences flanking the KRAS coding sequence were generated using PCR and purified using the MinElute PCR Purification Kit (Qiagen). 250 ng of linear DNA was subsequently used for the in vitro translation reaction, which was performed for 2 hours at 37° C. with shaking (1000 rpm). Indicated biotinylated pept-ins were mixed in the translation reactions from a 5 mM stock solution in 6M Urea to a final concentration of 10 μM. Upon completion of the translation reaction, biotinylated pept-ins were captured from the reaction mix using Streptavidin coated beads (Pierce) during 90 min at room temperature. Beads were next washed with TBS containing 0.1% Tween 20 and bound proteins were finally boiled off in 1×SDS loading dye (Bio-Rad) in TBS buffer. Proteins were resolved using Any kD 15-well Mini-PROTEAN gels (Bio-Rad) during SDS-PAGE and probed for KRAS after Western blotting using a mouse monoclonal KRAS-specific antibody (SC-30, Santa Cruz Biotechnology), which was detected with an HRP-coupled anti-mouse secondary antibody using chemiluminescence on a Bio-Rad Chemidoc MP imaging instrument.
(§2) To mimic this in vitro, we devised an in vitro translation setup producing either wild-type or mutant (G12V, G12C, G12D or G13D) KRAS in the presence of biotinylated RAS-targeting pept-ins. This allowed us to perform a streptavidin pull-down to capture the biotinylated pept-ins from the translation reaction and perform SDS-PAGE and Western blotting to probe the pulled-down fraction for the presence of KRAS. The biotinylated version of pept-in 04-004-N001, i.e. 04-004-N011, which harbours an APR window sequence derived from a wild-type APR, is predicted to target all RAS proteins independently from their mutation status.

[1] = Single-dose viability screen on adherently growing (2D) NCI-H441 cells (CellTiter Blue); type: cell-based, human; details: 25 μM single dose, adherent NCI-H441, compared to vehicle (30 mM Urea); read-out: decrease in viability after 4 days of exposure
Description: For the single-dose viability screen on adherent cells, 4000 cells were seeded per well in black μclear® Cellstar® F-bottom 96-well plates (Greiner) in 100 μL full growth medium. The day after seeding, growth medium was replaced with full growth medium containing the indicated pept-in at a fixed final dose of 25 μM. Technical duplicates were included for all experimental pept-in conditions. 2 and 4 days after treatment viability was assessed using the CellTiter Blue reagent (Promega) according to the manufacturer's instructions, with the following adaptation: CellTiter Blue reagent was diluted 1 in 2 in PBS. Readout was performed on a Clariostar plate reader (BMG). Dose-response assays were performed with the following adaptations: pept-ins were tested in dose-response using a 1 in 2 dilution series with 50 μM being the highest final concentration used. Furthermore, a single viability read-out was performed 3 days after treatment using the Celltiter Glo reagent (Promega) according to the manufacturer's instructions, with the following adaptation: CellTiter Glo reagent was diluted 1 in 4 in PBS.
To assess pept-in activity on the viability of RAS-mutant tumor cells, we used adherent NCI-H441 lung adenocarcinoma cells which harbor a G12V mutation in KRAS. To verify that this cell line was indeed dependent on KRAS for its growth, we used SAH-SOS-1A as a positive control. SAH-SOS-1A is a peptidic compound whose design is based on a stabilized helix from son of sevenless 1, the canonical guanine exchange factor for KRAS (Leshchiner et al. Proc Natl Acad Sci U S A. 2015, vol. 112(6), 1761-6).
Pept-ins were screened at a single dose of 25 μM (corresponds to final concentration of 30 mM Urea) and viability was measured after 2 and 4 days of exposure using the CellTiter Blue reagent. […] Hit rates and potencies for the other templates tested were considerably lower. […] One of these pept-ins (04-004-N001) harbours an APR window sequence derived from another APR of RAS, that is thus present in both G12 mutant and wild-type RAS, while the other four pept-ins (04-006-N001, 04-014-N001, 04-015-N001 and 04-033-N001) harbour an APR window sequence that is derived from and contains a G12V mutant site.

[2] = tested on: NCI-H441 cells growing as suspension spheroid cultures; assay: Single-dose viability screen on NCI-H441 suspension spheroid cultures (3D, CellTiter Glo 3D); type: cell-based, human; details: 25 μM single dose, 5 days
Description: (§3) For the single-dose viability screen on spheroid cultures, 1000 cells were seeded per well in black Ultra-Low Attachment (ULA) round-bottom 96-well plates (Corning) in 75 μL full growth medium. The day after seeding, spheroids were treated by addition of 50 µl of full growth medium containing the indicated test compounds so that the final concentration after adding was 25 μM. Technical duplicates were included for all experimental pept-in conditions 5 days after treatment viability was assessed using the CellTiter Glo 3D reagent (Promega) according to the manufacturer's instructions, with the following adaptation: 80 μL of reagent was added per well. Readout was performed on a Clariostar plate reader (BMG). […]
As previous reports have shown that adherent growth of KRAS mutant cells lines might attenuate their sensitivity to KRAS inhibition or knockdown (Fujita-Sato et al. Cancer Res. 2015, vol. 75, 2851-62; Patricelli et al. Cancer Discov. 2016, vol. 6, 316-29; Vartanian et al. J Biol Chem. 2013, vol. 288, 2403-13), we complemented the screen on adherently growing NCI-H441 cells with a screen on suspension spheroid cultures of the same cell line. […] Viability of the spheroid cultures was determined after 5 days of exposure using the CellTiter Glo 3D reagent from Promega. […]

SW620 tumor = assay: In vivo SW620 xenograft model of human KRAS G12V colorectal cancer; set-up: species or system mouse; details: for average tumor volume at day 22, 20 μg dosing group / average tumor volume at day 22, 200 μg dosing group: intratumoral injection three times per week
Description: Female NCr nu/nu mice (8 to 12 weeks) were inoculated with 1×10^6 SW620 tumor cells in 50% Matrigel subcutaneously in the hind flank. The cell Injection Volume was 0.1 mL/mouse. When tumors reached an average size of 100-150 mm^3 a pair match was performed, and treatment started. Group sizes were N=6 for the non-treated group, N=5 for the vehicle groups and N=8 for the pept-in and positive control groups. Tumor growth was monitored by caliper measurement twice per week. Model response was monitored by Irinotecan dosed once per week at 100 mg/kg intraperitoneally for 3 weeks.
To assess whether the RAS-targeting pept-ins are able to attenuate growth of KRAS G12V-driven tumors in vivo, a subcutaneous xenograft model of human KRAS G12V colorectal cancer (SW620) was used. Once the tumors reached 100-150mm^3 in size, pept-ins were administered directly into the tumor mass by intratumoral injection three times per week during two weeks at two different doses (20 μg and 200μg).

[3] = tested on: RASless MEFs expressing KRAS G12V; assay: Spheroid efficacy on RASless MEF panel; type: cell-based, mouse; details: spheroids, 5 days of exposure
Description: as §3, with “(BMG). For dose-response assays using RASless MEFs, cells were seeded at 1000 (G12V and G12C) or 2000 (wild-type and BRAF V600E) in Matrigel-containing medium, in order to obtain equally viable spheroids at start of treatment, 24 hrs later.” for “(BMG).”
RAS mutant-selectivity on cellular efficacy was assessed using the isogenic RASless mouse embryonic fibroblast (MEF) panel. […] The panel assessed included the common clinical KRAS variants expressed as transgene (WT, G12V and G12C) and an additional cell line dependent on the expression of BRAF V600E for proliferation.
Efficacy of RAS-targeting pept-ins on MEFs growing as spheroids was assessed after 5 days of exposure. […]

G12C mutant KRAS = target: T2, G12C mutant KRAS (Homo sapiens, UniProt P01116, G12C); assay: In vitro translation assay with streptavidin pull-down of biotinylated pept-ins, Western blot for KRAS; type: binding; details: 10 μM biotinylated pept-in
T2 construct: made in house; host or cells: cell-free: PURExpress In Vitro Protein Synthesis Kit (New England Biolabs), linear T7 PCR template
Description: as §1, §2

Row | Compound | pull-down of G12V mutant KRAS (G12V mutant KRAS) | cytotoxicity [1] [%] | other results
1 | 04-006-N007: biotinylated version of a biologically active pept-in harbouring an APR window containing the G12V mutant site (KVVVGAVKGSKVVVGAVK; also: biotinylated, site not given here) | notable pull-down was only observed for the G12V mutant KRAS | – | –
2 | Ac-KLVVVGAVKGSKLVVVGAVK-NH2 [04-014-N001] | – | ≥ 75 | activity in the spheroid setting [2]: did not display activity
3 | Ac-KLSVFAIKGSKLSVFAIK-NH2 [04-004-N001] | – | ≥ 75 | average tumor volume at day 22, 20 μg dosing group (SW620 tumor): only significant for the 200 μg dosing group; average tumor volume at day 22, 200 μg dosing group (SW620 tumor): significant; efficacy on MEFs expressing KRAS G12V [3]: notable increased efficacy
4 | 04-033-N003: biotinylated version of a biologically active pept-in harbouring an APR window containing the G12V mutant site (KVVVGAVGVGKGSKVVVGAVGVGK; also: biotinylated, site not given here) | notable pull-down was only observed for the G12V mutant KRAS | – | –
5 | 04-015-N026: biotinylated version of a biologically active pept-in harbouring an APR window containing the G12V mutant site (KVVVGAVGKGSKVVVGAVGK; also: biotinylated, site not given here) | notable pull-down | – | pull-down of G12C mutant KRAS (G12C mutant KRAS): notable pull-down
6 | Ac-KVVVGAVKGSKVVVGAVK-NH2 [04-006-N001] | – | ≥ 75 | –
7 | CC(=O)N[C@@H](CCCCN)C(=O)N[C@H](C(=O)N[C@H](C(=O)N[C@H](C(=O)NCC(=O)N[C@@H](C)C(=O)N[C@H](C(=O)NCC(=O)N[C@@H](CCCCN)C(=O)NCC(=O)N[C@@H](CO)C(=O)N[C@@H](CCCCN)C(=O)N[C@H](C(=O)N[C@H](C(=O)N[C@H](C(=O)NCC(=O)N[C@@H](C)C(=O)N[C@H](C(=O)NCC(=O)N[C@@H](CCCCN)C(N)=O)C(C)C)C(C)C)C(C)C)C(C)C)C(C)C)C(C)C)C(C)C)C(C)C [04-015-N001] | – | ≥ 75 | average tumor volume at day 22, 20 μg dosing group (SW620 tumor): significant reduction in average tumor volume; average tumor volume at day 22, 200 μg dosing group (SW620 tumor): significant reduction in average tumor volume; reduction in tumor growth (comparison between pept-ins) (SW620 tumor; intratumoral injection, 20 μg and 200 μg): strongest reduction in tumor growth
8 | Ac-KVVVGAVGVGKGSKVVVGAVGVGK-NH2 [04-033-N001] | – | ≥ 75 | –
